± gives the standard deviation of the averaged measurements.
Compound: CC[C@@]1(O)C(=O)OCc2c1cc1n(c2=O)Cc2cc3ccccc3nc2-1 [CAMPTOTHECIN]
Assay: surviving fraction relative to DMSO-only wells; higher = less growth inhibition
Conditions: 5 nM; exposure time: 5 days
Procedure, shortened: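 In 384-well plates, 250–500 log-phase tumour cells per well were given 24 hours before five days of continuous exposure to inhibitors at 0.5, 1, 5, 10, 50, 100, 500 and 1000 nM. Surviving fraction is luminescence from CellTiter-Glo, normalised to the median of wells containing DMSO alone. Reading took place after 10 minutes at room temperature.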

Test System | surviving fraction
C33A CERVIX | 0.654 ± 0.1
PCI30 HEADNECK | 0.857 ± 0.024
SCC003 HEADNECK | 0.849 ± 0.065
HUO3N1 BONE | 0.639 ± 0.046
T47D BREAST | 0.743 ± 0.019
NOS1 BONE | 0.663 ± 0.067
HELA CERVIX | 0.967 ± 0.04
NY BONE | 0.648 ± 0.026
CASKI CERVIX | 0.575 ± 0.054
BT549 BREAST | 0.377 ± 0.018
COLO320DM LARGE INTESTINE | 0.458 ± 0.026
MDAMB361 BREAST | 0.747 ± 0.096
HOSMNG BONE | 0.863 ± 0.1
A549 LUNG | 0.964 ± 0.017
CAL51 BREAST | 0.797 ± 0.027
OSHN BONE | 0.47 ± 0.079
MCF7 BREAST | 0.696 ± 0.079
HT1080 SOFT TISSUE | 0.739 ± 0.034
MDAMB157 BREAST | 0.674 ± 0.061
143B BONE | 0.947 ± 0.025

Test System | surviving fraction
SIHA CERVIX | 0.857 ± 0.033
MDAMB134 BREAST | 0.66 ± 0.016
SG32 HEADNECK | 0.336 ± 0.0083
NCIH441 LUNG | 0.743 ± 0.019
CCK81 LARGE INTESTINE | 0.693 ± 0.16
SG31 HEADNECK | 0.607 ± 0.074
OS25HAL BONE | 0.475 ± 0.03
HCC1954 BREAST | 0.484 ± 0.033
VP229 BREAST | 0.794 ± 0.17
22RV1 PROSTATE | 0.586 ± 0.044
MDAMB231 BREAST | 0.803 ± 0.04
RDES SOFT TISSUE | 0.027 ± 0.001
LM7 BONE | 0.422 ± 0.0056
HMT3552 BREAST | 0.782 ± 0.031
SNU475 LIVER | 0.635 ± 0.0066
HCC38 BREAST | 0.563 ± 0.16
HU09 BONE | 0.311 ± 0.065
ASKA SYNOVIAL | 0.349 ± 0.032
CADOES1 SOFT TISSUE | 0.0943 ± 0.0059

Same assay, conditions: 10 nM; exposure time: 5 days

Test System | surviving fraction
JURKAT HAEMATOPOIETIC AND LYMPHOID TISSUE | 0.0237 ± 0.0015
SJSA1 BONE | 1.2 ± 0.017
YAMATO SYNOVIAL | 0.479 ± 0.033
C33A CERVIX | 0.423 ± 0.024
PCI30 HEADNECK | 0.497 ± 0.026
SCC003 HEADNECK | 0.786 ± 0.094
HUO3N1 BONE | 0.373 ± 0.057
T47D BREAST | 0.528 ± 0.012
NOS1 BONE | 0.494 ± 0.059
HELA CERVIX | 1.06 ± 0.014
NY BONE | 0.184 ± 0.012
CASKI CERVIX | 0.38 ± 0.035
BT549 BREAST | 0.103 ± 0.014
COLO320DM LARGE INTESTINE | 0.38 ± 0.023
MDAMB361 BREAST | 0.723 ± 0.066
HOSMNG BONE | 0.875 ± 0.042
A549 LUNG | 0.681 ± 0.018
CAL51 BREAST | 0.52 ± 0.014
OSHN BONE | 0.108 ± 0.018
MCF7 BREAST | 0.556 ± 0.01
HT1080 SOFT TISSUE | 0.361 ± 0.0046

Test System | surviving fraction
MDAMB157 BREAST | 0.319 ± 0.058
143B BONE | 0.83 ± 0.07
SIHA CERVIX | 0.539 ± 0.1
MDAMB134 BREAST | 0.587 ± 0.031
SG32 HEADNECK | 0.447 ± 0.071
NCIH441 LUNG | 0.474 ± 0.031
CCK81 LARGE INTESTINE | 0.542 ± 0.097
SG31 HEADNECK | 0.715 ± 0.1
OS25HAL BONE | 0.145 ± 0.022
HCC1954 BREAST | 0.517 ± 0.037
VP229 BREAST | 0.662 ± 0.14
22RV1 PROSTATE | 0.275 ± 0.022
MDAMB231 BREAST | 0.603 ± 0.019
RDES SOFT TISSUE | 0.0233 ± 0.00058
LM7 BONE | 0.232 ± 0.015
HMT3552 BREAST | 0.422 ± 0.0095
SNU475 LIVER | 0.482 ± 0.023
HCC38 BREAST | 0.351 ± 0.12
HU09 BONE | 0.0673 ± 0.011
ASKA SYNOVIAL | 0.242 ± 0.025
CADOES1 SOFT TISSUE | 0.0577 ± 0.014

Same assay, conditions: 50 nM; exposure time: 5 days

Test System | surviving fraction
JURKAT HAEMATOPOIETIC AND LYMPHOID TISSUE | 0.0293 ± 0.00058
SJSA1 BONE | 1.25 ± 0.084

— the supplement of paper PMC6045584
